Measured values taken from patent US20190053492A1, “SUBSTITUTED PYRIDINE COMPOUNDS AS PESTICIDES” (Bayer CropScience Aktiengesellschaft, priority 2016, published 2019).
Where two headings read alike, the source gives them in different places.

Tests used:
[1] = log P by HPLC on reversed-phase column (C 18), EEC Directive 79/831 Annex V.A8; type: physicochemical; settings: 55° C.; for chromatographic logP: reversed-phase HPLC column (C 18)
Protocol: Temperature: 55° C. […] Called log P (HCOOH) in the table. […] Called log P (neutral) in the table.

Myzus persicae = Myzus persicae spray test; type: in vivo; settings: application rate 500 g/ha, after 6 days, Chinese cabbage leaf discs
Protocol: Myzus persicae—Spray Test
Solvent: 78 parts by weight of acetone • • 1.5 parts by weight of dimethylformamide
Emulsifier: alkylaryl polyglycol ether
To produce a suitable active ingredient formulation, 1 part by weight of active ingredient is dissolved with the specified parts by weight of solvent and made up with water containing an emulsifier concentration of 1000 ppm until the desired concentration is attained. To produce further test concentrations, the formulation is diluted with emulsifier-containing water.
Discs of Chinese cabbage leaves (Brassica pekinensis) infested by all stages of the green peach aphid (Myzus persicae) are sprayed with an active ingredient formulation of the desired concentration.
After 6 days, the efficacy in % is determined. 100% means that all the aphids have been killed; 0% means that no aphids have been killed.

Phaedon cochleariae = Phaedon cochleariae spray test; type: in vivo; settings: Phaedon cochleariae, foliar, 168 h; application rate 500 g/ha, after 7 days, Chinese cabbage leaf discs; read-out: efficacy (beetle larvae killed)
How it was run: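 Chinese cabbage leaf discs sprayed with compound in acetone/DMF and emulsifier-containing water, then infested with mustard beetle larvae once dry. Efficacy in % scored after 7 days (100% = all larvae killed, 0% = none).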

Ctenocephalides felis = Ctenocephalides felis oral test; type: in vivo; settings: Ctenocephalides felis, po, 48 h; application rate 100 ppm in citrated cattle blood, after 2 days, adult cat fleas; read-out: efficacy (kill in %)
How it was run: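 About 20 unfed adult cat fleas fed through a parafilm membrane on citrated cattle blood dosed with compound from a DMSO formulation. Percent kill was scored after 2 days.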

Spodoptera frugiperda = Spodoptera frugiperda spray test; type: in vivo; settings: Spodoptera frugiperda, foliar, 168 h, after 7 days, maize leaf discs, read-out: efficacy (caterpillars killed)
How it was run: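 Maize leaf discs were sprayed with compound formulated in acetone/DMF and emulsifier-containing water, dried, then infested with Spodoptera frugiperda caterpillars. Percent kill was scored after 7 days, from 100% (all dead) to 0% (none dead).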

Meloidogyne incognita = Meloidogyne incognita test; type: in vivo; settings: application rate 20 ppm, after 14 days, lettuce
Protocol: Meloidogyne incognita Test Solvent: 125.0 parts by weight of acetone To produce a suitable active ingredient formulation, 1 part by weight of active ingredient is mixed with the stated amount of solvent and the concentrate is diluted with water to the desired concentration. Vessels are filled with sand, active ingredient solution, an egg/larvae suspension of the southern root-knot nematode (Meloidogyne incognita) and lettuce seeds. The lettuce seeds germinate and the plants develop. The galls develop on the roots. After 14 days, the nematicidal efficacy in % is determined by the formation of galls. 100% means that no galls were found; 0% means that the number of galls on the treated plants corresponds to the untreated control.

LOGP_HCOOH ([1]; log P (HCOOH), acidic range pH 2.7, 0.1% aqueous formic acid and acetonitrile, reversed-phase column (C 18)): 4.27
LOGP_NEUTRAL ([1]; log P, neutral range, HPLC on reversed-phase column (C 18)): 4.18
chromatographic logP ([1]; pH 2.7, LC-MS acidic range, pH 2.7, 0.1% formic acid/acetonitrile, read-out: log P (acidic) / log P (HCOOH)): 4.27
chromatographic logP ([1]; pH 7.8, LC-MS neutral range, pH 7.8, ammonium hydrogencarbonate/acetonitrile, read-out: log P (neutral)): 4.18
SMILES: N#Cc1ccc(CNC(=O)c2cc(-c3ccc(C(F)(F)F)cc3)cc(N(C(=O)C3CC3)C(=O)C3CC3)n2)cc1F [Example I-028, 6-[Bis(cyclopropylcarbonyl)amino]-N-(4-cyano-3-fluorobenzyl)-4-[4-(trifluoromethyl)phenyl]pyridine-2-carboxamide]
efficacy (aphids killed) (Myzus persicae): 90%
pest or weed control at 500 g/ha (Phaedon cochleariae): 100%
pest or weed control at 100 ppm (Ctenocephalides felis): 100%
pest or weed control at 100 g/ha (Spodoptera frugiperda; application rate 100 g/ha): 83%
pest or weed control at 500 g/ha (Spodoptera frugiperda; application rate 500 g/ha): 100%
nematicidal efficacy (formation of galls) (Meloidogyne incognita): 90%
